Consider 13 compounds from patent publication US10730866B2, “Indole derivatives and use thereof” (Purdue Pharma L.P., priority 2014, dated 2020).

Some results are limits rather than exact numbers.

One experiment deals with human Nav1.7 (Homo sapiens (Human), UniProt Q15858). Description: FLIPR or FLIPR TETRA sodium dye assay for sodium channel blocking activity. It is filed as cell-based. As to conditions: recombinant HEK293 cells expressing human Nav1.7. The procedure: In vitro assays were performed in a recombinant cell line expressing cDNA encoding the alpha subunit (Nav1.7, SCN9a, PN1, NE) of human Nav1.7 (Accession No. NM_002977). The cell line was provided by investigators at Yale University (Cummins et al, J. Neurosci. 18(23): 9607-9619 (1998)). For dominant selection of the Nav1.7-expressing clones, the expression plasmid co-expressed the neomycin resistance gene. The cell line was constructed in the human embryonic kidney cell line, HEK293, under the influence of the CMV […] promoter, and stable clones were selected using limiting dilution cloning and antibiotic selection using the neomycin analogue, G418. Recombinant beta and gamma subunits were not introduced into this cell line. Additional cell lines expressing recombinant Nav1.7 cloned from other species can also be used, alone or in combination with various beta subunits, gamma subunits or chaperones.
Unless otherwise noted, cell culture reagents were purchased from Mediatech of Herndon, Va. The recombinant Nav1.7/HEK293 cells were routinely cultured in growth medium consisting of Dulbecco's […] essential medium containing 10% fetal bovine serum (FBS, Hyclone, Thermo Fisher Scientific, Logan, Utah), 100 U/mL penicillin, 100 μg/mL streptomycin, 2-4 mM L-glutamine, and […] G418. For natural, non-recombinant cell lines, the selective antibiotic was omitted, and additional media formulations can be applied as needed.
The final buffer consisted of 20 mM Hepes, pH 7.3, 1.261 mM CaCl2, 0.493 mM MgCl2, 0.407 mM Mg(SO)4, 5.33 mM KCl, 0.441 mM KH2PO4, 137 mM NaCl, 0.336 mM Na2HPO4 and […] D-glucose (Hanks et al., Proc. Soc. Exp. Biol. Med. 71:196 (1949)), and the simple formulation was typically the basic buffer throughout the assay (i.e., all wash and addition steps).
The fluorescence indicator used in the primary fluorescence assay was the cell permeant version of CoroNa™ Green (Invitrogen, Molecular Probes, Eugene, Oreg.), a dye that emits light in the fluorescence range (Harootunian et al., J. Biol. Chem. 264(32):19458-19467 (1989)). The intensity of this emission, but not the wavelength range, is increased when the dye is exposed to Na^+ ions, which it can bind with partial selectivity. Cells expressing Nav1.7 or other sodium channels were loaded with the CoroNa™ Green dye immediately in advance of the fluorescence assay, and then, after agonist stimulation, the mobilization of Na^+ ions was detected as the Na^+ ions flowed from the extracellular fluid into the cytoplasm through the activated sodium channel pores. The dye was stored in the dark as a lyophilized powder, and then an aliquot was dissolved immediately before the cell loading procedure, according to the instructions of the manufacturer, to a stock concentration of 10 mM in DMSO. It was then diluted in the assay buffer to a 4× concentrated working solution, so that the final concentration of dye in the cell loading buffer was 5 μM.
In the fluorescence assays, two agonists were used in combination, namely 1) veratridine; and 2) the venom from the yellow scorpion, Leiurus quinquestriatus hebraeus. Veratridine is an alkaloid small molecule that facilitates the capture of channel openings by inhibiting inactivation, and the scorpion venom is a natural preparation that includes peptide toxins selective for different subsets of voltage-gated sodium channels. These scorpion toxins inhibit the fast inactivation of their cognate target channels. Stock solutions of the agonists were prepared to 40 mM in DMSO (veratridine) and 1 mg/mL in dH2O (scorpion venom), and then diluted to make a 4× or 2× stock (depending on the particular assay) in assay buffer, the final concentration being 100 μM (veratridine) and 10 μg/mL (scorpion venom). Both of the agonists were purchased from Sigma Aldrich, St. Louis, Mo.
Test compounds were dissolved in DMSO to yield 10 mM stock solutions. […]

The target of another experiment is hNav1.7 (Homo sapiens (Human), UniProt Q15858). The experiment can be described thus: Electrophysiology (EP) assay, whole-cell patch clamp. The class given is cell-based. As to conditions: hNav1.7 expressing HEK-293 cells; affinity for inactivated state; read-out: Nav1.7 Activity (μM) EP assay Ki. The procedure:
The hNav1.7 expressing HEK-293 cells are plated on 35 mm culture dishes pre-coated with poly-D-lysine in standard DMEM culture media (Mediatech, Inc., Herndon, Va.) and incubated in a 5% CO2 incubator at 37° C. Cultured cells are used approximately 12-48 hours after plating.
The hNav1.7 expressing HEK-293 cells are plated on tissue culture flasks in standard DMEM culture media (Mediatech, Inc.) and incubated in a 5% CO2 incubator at 37° C. Cultured cells are used approximately 12-48 hours after plating.
On the day of experimentation, the 35 mm dish is placed on the stage of an inverted microscope equipped with a perfusion system that continuously perfuses the culture dish with fresh recording media. A gravity driven superfusion system is used to apply test solutions directly to the cell under evaluation. This “shooter” system consists of an array of glass pipettes connected to a motorized horizontal translator. The outlet of the shooter is positioned approximately 100 μm from the cell of interest.
Whole cell currents are recorded using the whole-cell patch clamp configuration using an Axopatch 200B amplifier (Axon Instruments, Foster City Calif.), 1322A A/D converter (Axon Instruments) and pClamp software (v. 8; Axon Instruments) and stored on a personal computer. Gigaseals are formed and the whole-cell configuration is established in voltage clamp mode, and membrane currents generated by hNav1.7 channels are recorded. Borosilicate glass pipettes with resistance values between 1.5 and 2.0 MΩ when filled with pipette solution are used and series resistance (<5 MΩ) is compensated by 75-80%. Signals are sampled at 50 kHz and low pass filtered at 3 kHz.
Whole cell currents are recorded using the whole-cell patch clamp configuration using an Patchliner (Nanion Technologies, Munich Germany), EPC 10 quadro amplifiers (HEKA, Bellmore, N.Y.) and PatchControl HT 10905 (Nanion Technologies) and PatchMaster v2x73 software (HEKA) and stored on a personal computer. Gigaseals are formed and the whole-cell configuration is established in voltage clamp mode, and membrane currents generated by hNav1.7 are recorded. NPC-16 chips have resistance values between 1.0 and 2.0 MΩ when filled with pipette solution and series resistance (<5 MΩ). Signals are sampled at 25 kHz and low pass filtered at 3 kHz.
After establishing the whole-cell configuration in voltage clamp mode, voltage protocols are run to establish the 1) test potential (Vmax), 2) holding potential (Vh), and 3) the conditioning potential for each cell.
After establishing the whole-cell configuration in voltage clamp mode, a standard I-V protocol is run to determine the potential at which the maximal current (Imax) is elicited. This potential is the test potential (Vt). To determine a conditioning potential at which 100% of channels are in the inactivated state, a standard steady-state inactivation (SSIN) protocol is run using a series of fifteen 100 ms-long depolarizing prepulses, incrementing in 10 mV steps, immediately followed by a 5 ms testing pulse to Vmax. This protocol also permits determination of the holding potential at which all channels are in the resting state.
For compounds causing significant retardation of recovery from inactivation, an estimate of the affinity for the inactivated state of the channel (Ki) is generated using the following protocol. From the negative, no residual inactivation, holding potential, the cell is depolarized to the conditioning voltage for 2-5 seconds, returned to the negative holding potential for 10-20 ms to relieve fast inactivation and then depolarized to the test potential for ˜15 ms. This voltage protocol is repeated every 10-15 seconds, first to establish a baseline in the absence of the test compound, then in the presence of the test compound.
After a stable baseline is established, the test compound is applied and block of the current elicited by the test pulse assessed. […]
For orientation: The patch-clamp technique gives a direct electrical read-out from membranes.

Chain of hNav1.7 (Q15858 other isoform, or with tags, fused parts or gaps): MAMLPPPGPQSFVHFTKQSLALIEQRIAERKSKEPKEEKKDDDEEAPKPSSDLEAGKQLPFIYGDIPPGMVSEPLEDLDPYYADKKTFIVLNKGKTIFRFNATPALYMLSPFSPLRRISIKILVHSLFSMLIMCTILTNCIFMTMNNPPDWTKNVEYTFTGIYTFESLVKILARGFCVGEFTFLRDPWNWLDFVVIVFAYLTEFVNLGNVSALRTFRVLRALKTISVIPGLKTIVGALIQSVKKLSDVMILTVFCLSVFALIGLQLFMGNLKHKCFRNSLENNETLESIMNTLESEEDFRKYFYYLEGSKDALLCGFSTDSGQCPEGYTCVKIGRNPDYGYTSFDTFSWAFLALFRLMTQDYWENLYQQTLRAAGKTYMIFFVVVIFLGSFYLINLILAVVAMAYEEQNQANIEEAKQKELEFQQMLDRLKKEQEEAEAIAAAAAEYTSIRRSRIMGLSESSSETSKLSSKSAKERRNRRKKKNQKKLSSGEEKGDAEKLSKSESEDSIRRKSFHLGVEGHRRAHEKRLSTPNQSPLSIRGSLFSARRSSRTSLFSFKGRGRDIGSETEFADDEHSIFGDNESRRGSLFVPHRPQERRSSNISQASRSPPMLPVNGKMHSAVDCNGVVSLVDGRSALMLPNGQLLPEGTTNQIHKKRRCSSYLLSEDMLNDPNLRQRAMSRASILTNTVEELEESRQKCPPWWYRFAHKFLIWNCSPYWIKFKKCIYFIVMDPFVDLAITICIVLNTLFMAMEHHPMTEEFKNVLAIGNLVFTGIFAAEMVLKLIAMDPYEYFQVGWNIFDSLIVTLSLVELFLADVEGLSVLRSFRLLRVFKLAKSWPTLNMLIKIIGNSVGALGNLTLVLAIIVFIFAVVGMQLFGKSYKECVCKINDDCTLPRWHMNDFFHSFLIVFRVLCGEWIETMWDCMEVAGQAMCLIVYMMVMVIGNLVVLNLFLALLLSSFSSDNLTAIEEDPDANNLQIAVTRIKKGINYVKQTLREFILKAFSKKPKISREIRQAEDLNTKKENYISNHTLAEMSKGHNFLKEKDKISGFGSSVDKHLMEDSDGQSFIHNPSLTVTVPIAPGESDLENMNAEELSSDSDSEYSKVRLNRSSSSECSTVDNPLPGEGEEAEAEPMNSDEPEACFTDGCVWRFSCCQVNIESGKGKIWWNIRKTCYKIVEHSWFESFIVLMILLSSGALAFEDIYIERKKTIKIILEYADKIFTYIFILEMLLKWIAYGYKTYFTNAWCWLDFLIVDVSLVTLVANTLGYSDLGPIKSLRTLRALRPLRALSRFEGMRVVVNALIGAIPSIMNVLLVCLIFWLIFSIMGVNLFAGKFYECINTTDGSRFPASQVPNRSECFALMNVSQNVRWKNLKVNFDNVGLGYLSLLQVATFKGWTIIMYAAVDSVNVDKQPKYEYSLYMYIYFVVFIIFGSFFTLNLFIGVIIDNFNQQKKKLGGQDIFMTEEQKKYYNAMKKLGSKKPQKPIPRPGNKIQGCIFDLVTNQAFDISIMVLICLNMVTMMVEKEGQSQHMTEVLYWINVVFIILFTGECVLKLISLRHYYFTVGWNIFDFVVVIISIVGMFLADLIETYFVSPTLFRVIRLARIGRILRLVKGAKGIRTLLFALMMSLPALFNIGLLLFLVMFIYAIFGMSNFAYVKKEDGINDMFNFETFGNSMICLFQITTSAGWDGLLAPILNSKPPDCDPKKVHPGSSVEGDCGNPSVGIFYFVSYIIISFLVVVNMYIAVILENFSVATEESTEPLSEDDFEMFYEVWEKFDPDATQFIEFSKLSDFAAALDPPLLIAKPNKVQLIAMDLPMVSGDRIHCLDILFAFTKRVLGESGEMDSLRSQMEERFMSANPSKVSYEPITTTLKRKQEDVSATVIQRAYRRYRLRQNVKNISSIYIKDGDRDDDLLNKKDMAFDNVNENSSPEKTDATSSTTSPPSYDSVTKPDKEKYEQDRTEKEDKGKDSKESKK
Chain of human Nav1.7 (Q15858 other isoform, or with tags, fused parts or gaps): as above

As to `CC(C)Cn1ncc2cc(-c3cccc([C@H](O)[C@@H](O)C(N)=O)n3)ccc21` [Compound 155, (2R,3S)-2,3-dihydroxy-3-(6-(1-isobutyl-1H-indazol-5-yl)pyridin-2-yl)propanamide], the IC50 – broadly, the midpoint of a concentration-inhibition curve – at human Nav1.7 is above 20 µM. Moreover, on hNav1.7, the Ki was determined as 10.6 ± 3.9 µM. The matching figures for `OC[C@@H](O)c1cccc(-c2cnc3c(ccn3Cc3ccc(C(F)(F)F)cc3)c2)n1` [Compound 106, (S)-1-(6-(1-(4-(trifluoromethyl)benzyl)-1H-pyrrolo[2,3-b]pyridin-5-yl)pyridin-2-yl)ethane-1,2-diol]: 1.33 ± 0.164 µM and 0.286 ± 0.027 µM.

As to `NC(=O)c1cccc(-c2ccc3c(cnn3Cc3ccc(C(F)(F)F)cc3)c2)n1` [Compound 105, 6-(1-(4-(trifluoromethyl)benzyl)-1H-indazol-5-yl)picolinamide], the IC50 on human Nav1.7 amounted to 0.897 ± 0.114 µM. Moreover, the Ki at hNav1.7 came to 0.7 ± 0.049 µM.

Consider `CC(C)Cn1ccc2cc(-c3cccc([C@H](O)[C@@H](O)C(N)=O)n3)ccc21` [Compound 150, (2R,3S)-2,3-dihydroxy-3-(6-(1-isobutyl-1H-indol-5-yl)pyridin-2-yl)propanamide], for which the IC50 at human Nav1.7 is 1.38 ± 0.146 µM. For the same compound, the Ki at hNav1.7 turned out to be 0.678 ± 0.172 µM.

Consider `OC[C@@H](O)c1cccc(-c2ccc3c(cnn3Cc3ccc(C(F)(F)F)cc3)c2)n1` [Compound 107, (S)-1-(6-(1-(4-(trifluoromethyl)benzyl)-1H-indazol-5-yl)pyridin-2-yl)ethane-1,2-diol], for which the IC50 at human Nav1.7 was found to be 1.09 ± 0.077 µM. For the same compound, the Ki at hNav1.7 is 0.534 ± 0.032 µM.

Regarding `NC(=O)c1cc(-c2ccc3c(ccn3Cc3ccc(C(F)(F)F)cc3)c2)cc([C@H](O)CO)n1` [Compound 123, (S)-6-(1,2-dihydroxyethyl)-4-(1-(4-(trifluoromethyl)benzyl)-1H-indol-5-yl)picolinamide], the IC50 on human Nav1.7 was 1.52 ± 0.152 µM. For the same compound, the Ki at hNav1.7 was found to be 1.02 ± 0.368 µM. Take `O=C(Nc1ccc(C(F)(F)F)cc1)c1cc(N[C@H]2CCNC2=O)nc(-c2ccc3[nH]ccc3c2)n1` [Compound 78, (S)-2-(1H-indol-5-yl)-6-((2-oxopyrrolidin-3-yl)amino)-N-(4-(trifluoromethyl)phenyl)pyrimidine-4-carboxamide]: the half-maximal inhibitory concentration (IC50) at human Nav1.7 came out at 1.83 ± 0.459 µM. In addition, the Ki on hNav1.7 stood at 1.28 ± 0.48 µM. For `NC(=O)c1cc(N[C@H]2CCNC2=O)nc(-c2ccc3ncn(-c4ccc(C(F)(F)F)cc4)c3c2)n1` [Compound 44, (S)-6-((2-oxopyrrolidin-3-yl)amino)-2-(1-(4-(trifluoromethyl)phenyl)-1H-benzo[d]imidazol-6-yl)pyrimidine-4-carboxamide], the IC50 at human Nav1.7 amounted to 1.72 ± 0.156 µM. In addition, the Ki at hNav1.7 was found to be 1.54 ± 0.446 µM.

`CC(C)Cn1ccc2cc(-c3cccc(S(=O)(=O)Nc4ncns4)n3)ccc21` [Compound 41, 6-(1-isobutyl-1H-indol-5-yl)-N-(1,2,4-thiadiazol-5-yl)pyridine-2-sulfonamide]: the concentration for half-maximal inhibition (IC50) on human Nav1.7 worked out at 0.514 ± 0.054 µM. Further, the Ki at hNav1.7 is 0.322 ± 0.113 µM. Consider `NC(=O)[C@H](O)[C@@H](O)c1cccc(-c2ccc3c(ccn3CC3CC3)c2)n1` [Compound 154, (2R,3S)-3-(6-(1-(cyclopropylmethyl)-1H-indol-5-yl)pyridin-2-yl)-2,3-dihydroxypropanamide], for which the IC50 at human Nav1.7 fell in the range of 10 to 20 µM. Moreover, at hNav1.7, the Ki came to 27.2 ± 8.2 µM. For `O=C(Nc1nnn[nH]1)c1cccc(-c2ccc3[nH]ccc3c2)n1` [Compound 87, 6-(1H-indol-5-yl)-N-(1H-tetrazol-5-yl)picolinamide], the IC50 at human Nav1.7 was above 20 µM. Turning to `NC(=O)c1cc([C@@H](O)CO)cc(-c2ccc3c(ccn3Cc3ccc(C(F)(F)F)cc3)c2)n1` [Compound 120, (R)-4-(1,2-dihydroxyethyl)-6-(1-(4-(trifluoromethyl)benzyl)-1H-indol-5-yl)picolinamide], the IC50 at human Nav1.7 is 1.91 ± 0.458 µM. At hNav1.7, the Ki turned out to be 2.03 ± 0.608 µM. Turning to `NC(=O)c1cccc(-c2ccc3c(ccn3S(=O)(=O)c3ccc(C(F)(F)F)cc3)c2)n1` [Compound 57, 6-(1-((4-(trifluoromethyl)phenyl)sulfonyl)-1H-indol-5-yl)picolinamide], the half-inhibitory concentration (IC50) on human Nav1.7 worked out at 0.658 ± 0.078 µM.
